Laboratory results reported in EP1019392B1, “TRICYCLIC AMIDES USEFUL FOR INHIBITION OF G-PROTEIN FUNCTION AND FOR TREATMENT OF PROLIFERATIVE DISEASES” (SCHERING CORPORATION, priority 1995, dated 1997).
Like-named read-outs stand apart in the source and are kept apart here.

Experiments:
[1] = tested on: Normal human HEPM fibroblasts; assay: Cell Mat Assay, normal cell mat; type: cell-based; settings: normal monolayer
[2] = tested on: DLD-1-BAG human colon carcinoma cells expressing as activated K-ras gene; assay: Cell Mat Assay, DLD-1 tumor cells; type: cell-based
[3] = molecular target: T1, farnesyl protein transferase (FPT) (Rattus norvegicus, UniProt Q02293+Q04631); assay: In vitro enzyme assay: inhibition of farnesyl protein transferase (transfer of [3H]farnesyl to Ras-CVLS); type: biochemical; settings: partially purified rat brain FPT, Ras-CVLS
T1 construct: were partially purified from rat brain by ammonium sulfate fractionation followed by Q-Sepharose; from tissue; host or cells: rat brain
Description: • 1. In vitro enzyme assays: Inhibition of farnesyl protein transferase and geranylgeranyl protein transferase. […] Human farnesyl protein transferase was also expressed in E. coli, using cDNA clones encoding both the a and b subunits. […] Human farnesyl protein transferase was partially-purified from the soluble protein fraction of E. coli as described above. […] Two forms of val^12-Ha-Ras protein were prepared as substrates for these enzymes, differing in their carboxy terminal sequence. One form terminated in cysteine-valine-leucine-serine (Ras-CVLS) the other in cystein-valine-leucine-leucine (Ras-CVLL). Ras-CVLS is a substrate for the farnesyl protein transferase while Ras-CVLL is a substrate for geranylgeranyl protein transferase I. The cDNAs encoding these proteins were constructed so that the proteins contain an amino-terminal extension of 6 histidine residues. Both proteins were expressed in Escherichia coli and purified using metal chelate affinity chromatography. The radiolabelled isoprenyl pyrophosphate substrates, [^3H]farnesyl pyrophosphate and [^3H]geranylgeranyl pyrophosphate, were purchased from DuPont/New England Nuclear. […] The reaction was allowed to proceed for 30 minutes at room temperature and then stopped with 0.5 ml of 4% sodium dodecyl sulfate (SDS) followed by 0.5 ml of cold 30% TCA. Samples were allowed to sit on ice for 45 minutes and precipitated Ras protein was then collected on GF/C filter paper mats using a Brandel cell harvester. […] Percent inhibition was calculated relative to the DMSO vehicle control. The geranylgeranyl protein transferase I assay was essentially identical to the farnesyl protein transferase assay described above, with two exceptions: [^3H]geranylgeranylpyrophosphate replaced farnesyl pyrophosphate as the isoprenoid donor and Ras-CVLL was the protein acceptor. […] Cell-Based Assay: Transient expression of val^12-Ha-Ras-CVLS and val^12-Ha-Ras-CVLL in COS monkey kidney cells: Effect of farnesyl protein transferase inhibitors on Ras processing and on disordered cell growth induced by transforming Ras. COS monkey kidney cells were transfected by electroporation with the plasmid pSV-SPORT (Gibco/BRL) containing a cDNA insert encoding either Ras-CVLS or Ras-CVLL, leading to transient overexpression of a Ras substrate for either farnesyl protein transferase or geranylgeranyl protein transferase I, respectively (see above). Following electroporation, cells were plated into 6-well tissue culture dishes containing 1.5 ml of Dulbecco's-modified Eagle's media (GIBCO, Inc.) supplemented with 10% fetal calf serum and the appropriate farnesyl protein transferase inhibitors. After 24 hours, media was removed and fresh media containing the appropriate drugs was re-added. 48 hours after electroporation cells were examined under the microscope to monitor disordered cell growth induced by transforming Ras. Cells expressing transforming Ras become more rounded and refractile and overgrow the monolayer, reminiscent of the transformed phenotype. Cells were then photographed, washed twice with 1 ml of cold phosphate-buffered saline (PBS) and removed from the dish by scraping with a rubber policeman into 1 ml of a buffer containing 25 mM Tris, pH 8.0; 1 mM ethylenediamine tetraacetic acid; 1 mM phenylmethylsulfonyl fluoride; […] leupeptin; and 0.1 mM pepstatin. Cells were lysed by homogenization and cell debris was removed by centrifugation at 2000 x g for 10 min. Cellular protein was precipitated by addition of ice-cold trichloroacetic acid and redissolved in […] of SDS-electrophoresis sample buffer. […] Proteins resolved on the gels were electroblotted onto nitrocellulose membranes for immunodetection. […] After washing, membranes were incubated for one hour at room temperature with a 1:5000 dilution of secondary antibody, rabbit anti-rat IgG conjugated to horseradish peroxidase, in PBS containing 1% fetal calf serum.

[4] = tested on: Ras-CVLS processing in COS monkey kidney cells; assay: COS cell assay: inhibition of Ras-CVLS processing (Western blot); type: cell-based
Description: • 1. In vitro enzyme assays: Inhibition of farnesyl protein transferase and geranylgeranyl protein transferase. Both farnesyl protein transferase (FPT) and geranylgeranyl protein transferase (GGPT) I were partially purified from rat brain by ammonium sulfate fractionation followed by Q-Sepharose (Pharmacia, Inc.) anion exchange chromatography essentially as described by Yokoyama et al (Yokoyama, K., et al., (1991), A protein geranylgeranyltransferase from bovine brain: Implications for protein prenylation specificity, Proc. Natl. Acad. Sci USA 88: 5302-5306, the disclosure of which is incorporated herein by reference thereto). Human farnesyl protein transferase was also expressed in E. coli, using cDNA clones encoding both the a and b subunits. The methods used were similar to those published (Omer, C. et al., (1993), Characterization of recombinant human farnesyl protein transferase: Cloning, expression, farnesyl diphosphate binding, and functional homology with yeast prenyl-protein transferases, Biochemistry 32:5167-5176). Human farnesyl protein transferase was partially-purified from the soluble protein fraction of E. coli as described above. […] Two forms of val^12-Ha-Ras protein were prepared as substrates for these enzymes, differing in their carboxy terminal sequence. One form terminated in cysteine-valine-leucine-serine (Ras-CVLS) the other in cystein-valine-leucine-leucine (Ras-CVLL). Ras-CVLS is a substrate for the farnesyl protein transferase while Ras-CVLL is a substrate for geranylgeranyl protein transferase I. The cDNAs encoding these proteins were constructed so that the proteins contain an amino-terminal extension of 6 histidine residues. Both proteins were expressed in Escherichia coli and purified using metal chelate affinity chromatography. The radiolabelled isoprenyl pyrophosphate substrates, [^3H]farnesyl pyrophosphate and [^3H]geranylgeranyl pyrophosphate, were purchased from DuPont/New England Nuclear. Several methods for measuring farnesyl protein transferase activity have been described (Reiss et al 1990, Cell 62: 81; Schaber et al 1990, J. Biol. Chem. 265: 14701; Manne et al 1990, PNAS 87: 7541; and Barbacid & Manne 1993, U.S. Patent No. 5,185,248). […] The reaction was allowed to proceed for 30 minutes at room temperature and then stopped with 0.5 ml of 4% sodium dodecyl sulfate (SDS) followed by 0.5 ml of cold 30% TCA. Samples were allowed to sit on ice for 45 minutes and precipitated Ras protein was then collected on GF/C filter paper mats using a Brandel cell harvester. Filter mats were washed once with 6% TCA, 2% SDS and radioactivity was measured in a Wallac 1204 Betaplate BS liquid scintillation counter. Percent inhibition was calculated relative to the DMSO vehicle control. The geranylgeranyl protein transferase I assay was essentially identical to the farnesyl protein transferase assay described above, with two exceptions: [^3H]geranylgeranylpyrophosphate replaced farnesyl pyrophosphate as the isoprenoid donor and Ras-CVLL was the protein acceptor. […] Cell-Based Assay: Transient expression of val^12-Ha-Ras-CVLS and val^12-Ha-Ras-CVLL in COS monkey kidney cells: Effect of farnesyl protein transferase inhibitors on Ras processing and on disordered cell growth induced by transforming Ras. COS monkey kidney cells were transfected by electroporation with the plasmid pSV-SPORT (Gibco/BRL) containing a cDNA insert encoding either Ras-CVLS or Ras-CVLL, leading to transient overexpression of a Ras substrate for either farnesyl protein transferase or geranylgeranyl protein transferase I, respectively (see above). Following electroporation, cells were plated into 6-well tissue culture dishes containing 1.5 ml of Dulbecco's-modified Eagle's media (GIBCO, Inc.) supplemented with 10% fetal calf serum and the appropriate farnesyl protein transferase inhibitors. After 24 hours, media was removed and fresh media containing the appropriate drugs was re-added.

[5] = tested on: SW620-BAG human colon carcinoma cells expressing an activated K-ras gene; assay: Cell Mat Assay, SW620 tumor cells; type: cell-based
[6] = tested on: T24-BAG4 human bladder carcinoma cells expressing an activated H-ras gene; assay: Cell Mat Assay, T24 tumor cells; type: cell-based; settings: read-out: Tumor (T-24) IC50
[7] = tested on: DLD-1 (human colon carcinoma cells, ATCC # CCL 221); assay: In Vivo Anti-Tumor Studies, subcutaneous DLD-1 tumors; parameters: species or system athymic nu/nu female mice; settings: Mus musculus, DLD-1, po, QID, 4 weeks, range over the listed compounds
Description: Tumor cells (5 X 10^5 to 8 X 10^6) of DLD-1 (human colon carcinoma cells, ATCC # CCL 221) are innolculated subcutaneously into the flank of 5-6 week o;d athymic nu/nu female mice.

[8] = Homo sapiens, SW-620, Mat assay

Structure (SMILES)	IC50 [1] [µM]	IC50 ([2]; Mat assay) [µM]	IC50 ([3]; FPT IC50, Table 1) [µM]	IC50 [4] [µM]	IC50 ([5]; Mat assay) [µM]	IC50 [6] [µM]	inhibition in vivo at 10 mg/kg ([7]; 10 mg/kg p.o.) [%]	inhibition in vivo at 50 mg/kg ([7]; 50 mg/kg p.o.) [%]	IC50 ([1]; Homo sapiens, Fibroblast) [µM]	IC50 ([2]; Homo sapiens, DLD-1, Mat assay) [µM]	IC50 [5, 8] [µM]	IC50 ([6]; Homo sapiens) [µM]	IC50 ([3]; Table 1, read-out: FPT IC50) [µM]	IC50 ([4]; Primates, COS) [µM]
NC(=O)N1CCC(CC(=O)N2CCN(C3c4ncc(Br)cc4CCc4cc(Cl)cc(Br)c43)CC2)CC1 (single isomer, unassigned) [Example 12B]	> 25	3.1	0.0025	< 0.025	6.25	< 1.6	7 to 50	35.4 to 83						
NC(=O)N1CCC(CC(=O)N2CCN(C3c4ncc(Br)cc4CCc4cc(Cl)cc(Br)c43)CC2)CC1 (single isomer, unassigned) [Example 12A]			> 0.094	0.95					> 25	2	4	< 1.6		
NC(=O)N1CCC(CC(=O)N2CCC(=C3c4ncc(Br)cc4CCc4cc(Cl)cc(Br)c43)CC2)CC1 (single isomer, unassigned) [Example 8A]				> 1					> 25	< 1.6	3.1	< 1.6		
O=C(Cc1cc[n+]([O-])cc1)N1CCC(C2c3ccc(Cl)c(Br)c3CCc3cc(Br)cnc32)CC1 (single isomer, unassigned) [Example 14]	> 25	6.25		> 1	> 12.5	< 1.6							0.062	
NC(=O)N1CCC(CC(=O)N2CCN([C@H]3c4ccc(Cl)cc4CCc4cc(Br)cnc43)CC2)CC1 [Example 17A]									> 25	4	18	3.1	0.048	0.5
NC(=O)N1CCC(CC(=O)N2CCC(=C3c4ccc(Cl)c(Br)c4CCc4cc(Br)cnc43)CC2)CC1 (racemic) [Example 15]									> 25	6.25	> 6.25	3.1	0.022	0.6
